Reference: US12054501B2, “Compositions and methods for inhibiting arginase activity” (Precision Pharmaceuticals Inc., priority 2016, dated 2024)
Entries after “also recorded” stand apart in the source; their conditions may differ.

Columns and labels:
[1] = Hydrolysis of the ethanolate in water (NMR in D2O, HPLC-MS); assay type: physicochemical; conditions: hydrolysis to the open free boronic acid form, compound 10
Method: The rapid conversion of compound 10e to compound 10 in water was confirmed by the similarity of a spectrum of 10e in D2O to a spectrum of 10 in D2O. When a sample of compound 10e was dissolved in D2O and the spectra immediately recorded (elapsed time <5 minutes), the spectra observed is identical to a spectra of compound 10 (the free boronic acid) plus ethanol (1:1 ratio). The spectrum of 10e in D2O was the same at 5 minutes and one hour after sample preparation, indicating the transformation was rapid and complete after a few minutes.
The NMR spectra (D2O) labeled A is compound 10 (free base) prepared from 11 as described in Example 2. The NMR spectra (D2O) labeled B is an analytical sample of compound 10e prepared as described above. The NMR spectra (D2O) labeled C is the sample from spectra B that has been lyophilized and redissolved in D2O.
Upon dissolution in 1:1 water/acetonitrile and immediate injection into an HPLC system, only a single peak is observed. The mass of this peak is consistent with compound 10.

[2] = Moisture sorption/desorption isotherm (TGA study, humidity uptake); assay type: physicochemical
Method: In the TGA study, a weighted amount of compound 10e was treated with increasing amounts of water vapor (increased humidity) and the impact of humidity on the weight of the sample was evaluated.

[3] = tested on: Lewis Lung Carcinoma cells; assay: Lewis Lung Carcinoma efficacy study (tumor volume over time); assay type: in vivo; conditions: single agent, dosed orally twice daily at 50, 100 or 200 mg/kg; C57BL/6 mice implanted with Lewis Lung Carcinoma cells; relative to control
Method: Female C57.Bl/6 mice (n=40) were implanted subcutaneously with 1×10^6 Lewis Lung Carcinoma cells suspended in PBS. The day following implantation, mice were randomized into 4 groups of n=10 mice to receive the following treatments dosed orally twice daily until study end: 1) Vehicle (water); 2) Compound 10 at 50 mg/kg formulated in water; 3) Compound 10 at 100 mg/kg formulated in water; or 4) Compound 10 at 200 mg/kg formulated in water. Tumors were measured three times per week with digital calipers and tumor volumes calculated with the following formula: tumor volume (mm^3)=(a×b^2/2) where ‘b’ is the smallest diameter and ‘a’ is the largest perpendicular diameter. ***P-value <0.001, ****P-value <0.0001 (Two-sided T-test).

stability under physiological conditions or any other aqueous conditions [1]	hysteresis of sorption and desorption isotherms [2]	observed moisture uptake ([2]; at 90% relative humidity (RH))	Structure (SMILES)	hygroscopicity ([2]; as humidity is increased)	tumor growth (tumor volume over time) [3]
rapidly hydrolyzes	–	–	CCOB1CCC[C@H]2CN(C(=O)[C@H](C)N)C[C@@]2(N)C(=O)O1 [Compound 10e, (6aS,9aR)-8-(L-alanyl)-9a-amino-3-ethoxyoctahydro-[1,2]oxaborocino[6,7-c]pyrrol-1(3H)-one]	–	–
–	minimal hysteresis	over 70%	C[C@H](N)C(=O)N1C[C@H](CCCB(O)O)[C@](N)(C(=O)O)C1 [Compound 10]	absorbs increasing amounts of water as the humidity increases; also recorded: hygroscopic	slows tumor growth relative to control
